This passage reports EC50 results from patent US7956069B2, “Compounds” (AstraZeneca AB, priority 2006, dated 2011).

The target in this test is T1, cloned human M2 receptor (Homo sapiens, UniProt P08172).
T1 construct: purchased Perkin-Elmer RBHM2M; host or cells: Chinese hamster ovary cells (CHO)
T1 sequence (P08172 1-466): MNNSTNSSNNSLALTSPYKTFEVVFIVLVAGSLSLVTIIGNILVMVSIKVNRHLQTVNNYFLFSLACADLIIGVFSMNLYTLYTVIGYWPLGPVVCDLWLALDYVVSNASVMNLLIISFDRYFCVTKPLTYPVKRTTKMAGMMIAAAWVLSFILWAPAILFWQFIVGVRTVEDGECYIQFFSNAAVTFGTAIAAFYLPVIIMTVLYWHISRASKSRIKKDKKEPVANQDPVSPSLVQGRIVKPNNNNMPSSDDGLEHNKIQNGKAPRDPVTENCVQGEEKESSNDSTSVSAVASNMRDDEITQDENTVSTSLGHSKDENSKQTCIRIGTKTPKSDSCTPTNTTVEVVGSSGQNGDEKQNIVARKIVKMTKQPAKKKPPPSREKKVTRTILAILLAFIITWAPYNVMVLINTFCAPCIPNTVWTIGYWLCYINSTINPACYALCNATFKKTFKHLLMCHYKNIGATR
In words: hM2 receptor GTPγS binding. Type of test: biochemical. The note with it: CHO membranes, [35S]GTPγS binding. How it is done: hM2 Receptor GTPγS Binding
Membranes produced from Chinese hamster ovary cells (CHO) expressing the cloned human M2 receptor (human Muscarinic receptor subtype 2, gene bank access NM_000739), were obtained from Perkin-Elmer (RBHM2M). The membranes were thawed at 37° C., passed 3 times through a 23-gauge blunt-end needle, diluted in the GTPγS binding buffer (50 mM Hepes, 20 mM NaOH, 100 mM NaCl, 1 mM EDTA, 5 mM MgCl2, pH 7.4, 100 μM DTT). The EC50, IC50 and Emax of the compounds of the invention were evaluated from 10-point dose-response curves (three fold concentration range) done in 60 μl in 384-well non-specific binding surface plate (Corning). Ten microliters from the dose-response curves plate (5× concentration) were transferred to another 384 well plate containing the following: 10 μg of hM2 membranes, 500 μg of Flashblue beads (Perkin-Elmer) and GDP in a 25 μl volume. An additional 15 μl containing 3.3× (55000 dpm) of GTPγ^35S (0.4 nM final) were added to the wells resulting in a total well volume of 50 μl. Basal and maximal stimulated [^35S]GTPγS binding were determined in absence and presence of 30 μM of acetylcholine agonist. The membranes/beads mix were pre-incubated for 15 minutes at room temperature with 25 μM GDP prior to distribution in plates (12.5 μM final). The reversal of acetylcholine-induced stimulation (2 μM final) of [^35S]GTPγS binding was used to assay the antagonist properties (IC50) of the compounds. The plates were incubated for 60 minutes at room temperature with shaking, then centrifuged at 2000 rpm for 5 minutes. The radioactivity (cpm) were counted in a Trilux (Perkin-Elmer).
Values of EC50, IC50 and Emax were obtained using sigmoidal fits of a non-linear curve-fitting program (XLfit version 5.0.6 from ID Business Solutions Limited, Guildford, UK) of percent stimulated [^35S]GTPγS binding vs. log(molar ligand).
All EC50 and IC50 values are reported as arithmetic means ± standard error of mean of ‘n’ independent experiments. […] The IC50 was the concentration of the compound of the invention at which 50% inhibition of acetylcholine [^35S]GTPγS binding stimulation has been observed.
In general terms: Binding of GTPγS marks nucleotide exchange on a G protein.

For the molecule `CCOC(=O)N1CCC(N2CCC(N3C(=O)N[C@H]4CCCC[C@@H]43)CC2)CC1`, the EC50 (usually the concentration that produces a half-maximal response) turned out to be 120 nM. With `CCOC(=O)N1CC[C@H](N2CCC(N3C(=O)N[C@H]4CCCC[C@@H]43)CC2)C1` the figure was 7300 nM; with `COc1ccccc1C(=O)N1CCC(N2CCC(N3C(=O)N[C@@H]4CCCC[C@H]43)CC2)CC1`, > 30000 nM.

`CC(C)OC(=O)N1CCC(N2CCC(N3C(=O)N[C@H]4CCCC[C@@H]43)CC2)CC1`: the EC50 is 760 nM.

`CC(C)OC(=O)N1CCC(N2CCC(N3C(=O)N[C@@H]4CCCC[C@@H]43)CC2)CC1` yielded an EC50 of 2500 nM. In turn, `O=C1CCCN1CCC(=O)N1CCC(N2CCC(N3C(=O)N[C@H]4CCCC[C@@H]43)CC2)CC1` displayed an EC50 of 500 nM. With `O=C(C1CC1)N1CCC(N2CCC(N3C(=O)N[C@@H]4CCCC[C@H]43)CC2)CC1`, the EC50 is > 30000 nM. The figure for `O=C1CCCN1CCC(=O)N1CCC(N2CCC(N3C(=O)N[C@@H]4CCCC[C@H]43)CC2)CC1` is 1000 nM; for `O=C(C1CCCC1)N1CCC(N2CCC(N3C(=O)N[C@H]4CCCC[C@@H]43)CC2)CC1` it is 2600 nM; for `CN1C(=O)N(C2CCN(C3CCN(C(=O)C4CC4)CC3)CC2)[C@H]2CCCC[C@@H]21` it is > 30000 nM.

In turn, `CC(C)OC(=O)N1CCC(N2CCC(N3C(=O)C[C@H]4CCCC[C@@H]43)CC2)CC1` had an EC50 of 1200 nM.

Consider `O=C(OCCF)N1CCC(N2CCC(N3C(=O)N[C@H]4CCCC[C@@H]43)CC2)CC1`, for which the EC50 was 380 nM.
